Legend:
[1] = target: T1, SMARCA2-HiBiT HeLa cells (protein which is expressed from the SMARCA2 gene) (Homo sapiens, UniProt P51531); test: SMARCA2 degradation assay (HiBiT-fusion HeLa cell line, 24 h, luminescence); type: cell-based
T1 construct: protein which is expressed from the SMARCA2 and SMARCA4 genes; host or cells: HeLa (SMARCA2-HiBiT engineered line)
Procedure, shortened: (§1)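 HeLa cells carrying HiBiT-tagged SMARCA2 or SMARCA4 were seeded at 8,000 cells/well, allowed to attach overnight at 37° C., then given compounds in a 10-point dilution series (typically 10 μM to 300 pM) for 24 hours at 37° C. Remaining tagged protein was read by HiBiT lytic luminescence, and DC50s came from dose-response curves.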

[2] = target: T2, SMARCA4-HiBiT HeLa cells (protein which is expressed from the SMARCA4 gene) (Homo sapiens, UniProt P51532); test: SMARCA4 degradation assay (HiBiT-fusion HeLa cell line, 24 h, luminescence); type: cell-based
T2 construct: protein which is expressed from the SMARCA2 and SMARCA4 genes; host or cells: HeLa (SMARCA4-HiBiT engineered line)
T2 sequence (P51532 whole entry, the tested form may be a part): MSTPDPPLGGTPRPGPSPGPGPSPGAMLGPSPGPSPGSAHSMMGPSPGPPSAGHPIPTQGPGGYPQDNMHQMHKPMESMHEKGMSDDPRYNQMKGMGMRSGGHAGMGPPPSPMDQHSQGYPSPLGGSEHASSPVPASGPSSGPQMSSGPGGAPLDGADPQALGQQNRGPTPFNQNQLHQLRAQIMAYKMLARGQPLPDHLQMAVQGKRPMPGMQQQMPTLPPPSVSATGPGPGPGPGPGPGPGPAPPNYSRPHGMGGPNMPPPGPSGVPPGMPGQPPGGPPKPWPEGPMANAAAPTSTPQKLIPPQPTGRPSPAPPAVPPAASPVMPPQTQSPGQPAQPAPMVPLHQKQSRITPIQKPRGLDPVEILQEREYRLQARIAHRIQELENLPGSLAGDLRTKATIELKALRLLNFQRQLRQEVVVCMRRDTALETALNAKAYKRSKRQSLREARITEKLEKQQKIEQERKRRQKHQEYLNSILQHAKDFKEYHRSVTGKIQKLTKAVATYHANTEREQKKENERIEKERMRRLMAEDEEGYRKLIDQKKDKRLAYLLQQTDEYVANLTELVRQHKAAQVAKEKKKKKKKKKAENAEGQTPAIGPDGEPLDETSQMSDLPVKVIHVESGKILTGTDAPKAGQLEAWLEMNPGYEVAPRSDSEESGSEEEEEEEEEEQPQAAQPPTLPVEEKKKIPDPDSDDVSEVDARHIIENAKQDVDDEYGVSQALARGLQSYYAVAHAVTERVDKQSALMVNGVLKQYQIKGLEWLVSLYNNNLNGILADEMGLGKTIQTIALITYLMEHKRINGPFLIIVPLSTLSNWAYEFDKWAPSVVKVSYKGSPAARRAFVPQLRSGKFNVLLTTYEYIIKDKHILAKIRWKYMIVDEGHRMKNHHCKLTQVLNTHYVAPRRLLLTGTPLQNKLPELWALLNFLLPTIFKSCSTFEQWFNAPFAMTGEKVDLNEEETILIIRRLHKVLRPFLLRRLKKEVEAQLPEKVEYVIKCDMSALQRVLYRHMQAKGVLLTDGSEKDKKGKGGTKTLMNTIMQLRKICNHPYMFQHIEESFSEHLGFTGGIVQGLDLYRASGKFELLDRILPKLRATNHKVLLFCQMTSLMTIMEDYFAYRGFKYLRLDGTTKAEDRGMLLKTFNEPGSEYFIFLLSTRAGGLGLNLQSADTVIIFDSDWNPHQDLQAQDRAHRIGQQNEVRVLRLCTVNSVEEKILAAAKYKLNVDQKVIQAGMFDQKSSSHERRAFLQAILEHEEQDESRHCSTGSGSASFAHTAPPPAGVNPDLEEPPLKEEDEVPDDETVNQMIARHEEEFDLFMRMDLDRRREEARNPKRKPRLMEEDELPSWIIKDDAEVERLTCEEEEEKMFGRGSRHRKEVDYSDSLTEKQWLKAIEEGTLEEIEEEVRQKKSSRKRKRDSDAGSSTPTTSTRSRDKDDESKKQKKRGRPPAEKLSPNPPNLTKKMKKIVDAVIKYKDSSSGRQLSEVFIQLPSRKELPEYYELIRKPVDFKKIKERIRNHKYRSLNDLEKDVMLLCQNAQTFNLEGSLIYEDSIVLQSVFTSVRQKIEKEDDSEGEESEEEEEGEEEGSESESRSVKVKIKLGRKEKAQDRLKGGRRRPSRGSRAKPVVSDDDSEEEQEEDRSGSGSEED
Procedure, shortened: as §1

T1 sequence (P51531 whole entry, the tested form may be a part): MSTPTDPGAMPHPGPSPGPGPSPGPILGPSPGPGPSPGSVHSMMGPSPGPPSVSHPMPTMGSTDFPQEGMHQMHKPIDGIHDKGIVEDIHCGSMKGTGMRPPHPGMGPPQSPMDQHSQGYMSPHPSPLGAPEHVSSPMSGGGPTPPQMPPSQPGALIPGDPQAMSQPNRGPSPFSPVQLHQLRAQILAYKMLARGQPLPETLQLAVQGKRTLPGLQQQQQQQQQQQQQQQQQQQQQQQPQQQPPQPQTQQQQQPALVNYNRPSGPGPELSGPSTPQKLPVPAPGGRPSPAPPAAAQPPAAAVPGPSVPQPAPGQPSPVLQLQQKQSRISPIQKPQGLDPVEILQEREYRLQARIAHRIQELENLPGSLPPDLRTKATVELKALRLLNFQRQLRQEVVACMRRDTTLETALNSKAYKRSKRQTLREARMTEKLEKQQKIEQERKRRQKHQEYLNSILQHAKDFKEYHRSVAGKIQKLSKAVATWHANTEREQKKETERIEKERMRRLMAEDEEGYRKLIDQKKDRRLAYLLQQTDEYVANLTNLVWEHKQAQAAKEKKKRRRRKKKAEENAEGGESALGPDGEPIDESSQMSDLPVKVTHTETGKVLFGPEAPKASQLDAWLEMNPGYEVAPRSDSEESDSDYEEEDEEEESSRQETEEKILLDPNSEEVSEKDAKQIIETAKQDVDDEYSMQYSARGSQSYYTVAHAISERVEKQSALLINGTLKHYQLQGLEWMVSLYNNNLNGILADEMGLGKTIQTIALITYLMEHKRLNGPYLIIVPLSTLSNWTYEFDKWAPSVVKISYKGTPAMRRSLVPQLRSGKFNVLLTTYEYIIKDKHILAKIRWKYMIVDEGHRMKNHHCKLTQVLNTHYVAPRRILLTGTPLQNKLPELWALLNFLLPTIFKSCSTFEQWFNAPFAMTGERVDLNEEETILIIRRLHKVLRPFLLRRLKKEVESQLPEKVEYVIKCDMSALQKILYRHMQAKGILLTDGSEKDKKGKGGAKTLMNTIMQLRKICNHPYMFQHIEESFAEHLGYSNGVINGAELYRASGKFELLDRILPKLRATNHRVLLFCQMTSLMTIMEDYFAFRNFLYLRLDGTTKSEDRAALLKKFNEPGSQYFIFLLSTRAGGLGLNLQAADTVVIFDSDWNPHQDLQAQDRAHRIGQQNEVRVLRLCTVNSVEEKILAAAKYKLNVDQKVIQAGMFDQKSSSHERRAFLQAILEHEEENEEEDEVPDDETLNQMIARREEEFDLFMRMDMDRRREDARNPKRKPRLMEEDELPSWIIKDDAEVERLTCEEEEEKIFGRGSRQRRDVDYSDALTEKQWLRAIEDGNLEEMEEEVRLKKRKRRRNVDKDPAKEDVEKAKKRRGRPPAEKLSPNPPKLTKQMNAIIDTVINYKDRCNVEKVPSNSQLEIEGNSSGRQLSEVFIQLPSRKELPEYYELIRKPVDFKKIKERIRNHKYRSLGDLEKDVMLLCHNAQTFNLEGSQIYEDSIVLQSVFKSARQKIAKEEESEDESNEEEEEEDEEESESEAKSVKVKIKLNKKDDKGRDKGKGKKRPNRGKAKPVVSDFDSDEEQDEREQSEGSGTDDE

Q: With CC1(C)CN(CC#Cc2nccc(N3CCCN(c4cc(-c5ccccc5O)nnc4N)CC3)n2)CCO1 [Compound P-311, 0-[6-amino-5-(4-{2-[3-(2,2-dimethyl-4-morpholinyl)-1-propynyl]-4-pyrimidinyl}-1,4-diazepan-1-yl)-3-pyridazinyl]phenol] as the molecule, how does the DC50 [1] read?
A: 50 to 500 nM

Q: And the “SMARCA2 % Degradation @ 1 μM” value ([1]; @ 1 μM)?
A: ++ (++=30-70%)

Q: What about the DC50 [2] of the same molecule?
A: 500 to 5000 nM

Q: What about the inhibition at 1 µM ([2]; @ 1 μM) of the same molecule?
A: 30 to 70%

Q: What does the source list for C[C@@H]1CCN(c2cc(-c3ccccc3O)nnc2N)CCN1c1ccnc(C#CCn2cncn2)c1C#N [Compound P-405, 4-{(R)-4-[3-amino-6-(0-hydroxyphenyl)-4-pyridaziny1]-7-methyl-1,4-diazepan-1-yl}-2-[3-(1H-1,2,4-triazol-1-yl)-1-propynyl]nicotinonitrile]?
A: DC50 [1]: 500 to 5000 nM; DC50 [2]: > 5000 nM

Q: Which results are given for C[C@@H]1CCN(c2cc(-c3ccccc3O)nnc2N)CCN1c1ccnc(C#CCN(C)C)c1C#N [Compound P-406, 4-{(R)-4-[3-amino-6-(0-hydroxyphenyl)-4-pyridazinyl]-7-methyl-1,4-diazepan-1-yl}-2-[3-(dimethylamino)-1-propynyl]nicotinonitrile]?
A: DC50 [1]: 500 to 5000 nM; SMARCA2 % Degradation @ 1 μM ([1]; 1 μM): ++ (++=30-70%); DC50 [2]: 500 to 5000 nM; inhibition at 1 µM ([2]; 1 μM): 30 to 70%

Q: Which results are given for CC(C#Cc1nccc(N2CCN(c3cc(-c4ccccc4O)nnc3N)CC2)n1)NC(=O)c1cc2ncccn2n1 (centres unmarked) [Compound P-95, N-(4-(4-(4-(3-amino-6-(2-hydroxyphenyl)pyridazin-4-yl)piperazin-1-yl)pyrimidin-2-yl)but-3-yn-2-yl)pyrazolo[1,5-a]pyrimidine-2-carboxamide]?
A: DC50 [1]: 50 to 500 nM; SMARCA2 % Degradation @ 1 μM ([1]; @ 1 μM): + (+=<30%); DC50 [2]: < 50 nM; inhibition at 1 µM ([2]; @ 1 μM): 30 to 70%

Q: Which DC50 [1] does the source give for C[C@@H]1CCN(c2cc(-c3ccccc3O)nnc2N)CCN1c1ccnc(C#CCN2CC3(CCC3(F)F)C2)n1 [Compound P-201, o-{5-[(R)-4-(2-{3-(5,5-difluoro-2-aza-2-spiro[3.3]hcptyl)-1-propynyl}-4-pyrimidinyl)-5-methyl-1,4-diazepan-1-yl]-6-amino-3-pyridazinyl}phenol] here?
A: 50 to 500 nM

Q: What about the “SMARCA2 % Degradation @ 1 μM” value ([1]; @ 1 μM) of the same molecule?
A: +++ (+++=>70%)

Q: And the DC50 [2]?
A: 50 to 500 nM

Q: And the inhibition at 1 µM ([2]; @ 1 μM)?
A: 30 to 70%

Q: Which DC50 [1] does the source give for CC(C)(C)OC(=O)N1Cc2cn(CC#Cc3nccc(N4CCCN(c5cc(-c6ccccc6O)nnc5N)CC4)n3)nc2C1 [Compound P-105, tert-butyl 2-(3-(4-(4-(3-amino-6-(2-hydroxyphenyl)pyridazin-4-yl)-1,4-diazepan-1-yl)pyrimidin-2-yl)prop-2-yn-1-yl)-2,6-dihydropyrrolo[3,4-c]pyrazole-5(4H)-carboxylate] here?
A: 50 to 500 nM

Q: And the “SMARCA2 % Degradation @ 1 μM” value ([1]; @ 1 μM)?
A: +++ (+++=>70%)

Q: And the DC50 [2]?
A: < 50 nM

Q: And the inhibition at 1 µM ([2]; @ 1 μM)?
A: > 70%

Q: For Nc1nnc(-c2ccccc2O)cc1N1CCCN(c2ccnc(C#CCn3ccn4nccc4c3=O)n2)CC1 [Compound P-109, 5-(3-(4-(4-(3-amino-6-(2-hydroxyphenyl)pyridazin-4-yl)-1,4-diazepan-1-yl)pyrimidin-2-yl)prop-2-yn-1-yl)pyrazolo[1,5-a]pyrazin-4(5H)-one], which DC50 [1] is on record?
A: < 50 nM

Q: And the “SMARCA2 % Degradation @ 1 μM” value ([1]; @ 1 μM)?
A: +++ (+++=>70%)

Q: What about the DC50 [2] of the same molecule?
A: 50 to 500 nM

Q: What about the inhibition at 1 µM ([2]; @ 1 μM) of the same molecule?
A: 30 to 70%

Q: What does the source list for C[C@@H]1CCN(c2cc(-c3ccccc3O)nnc2N)CCN1c1ccnc(C#CC2CN(CC(F)(F)F)C2)n1 [Compound P-173, o-{5-[(R)-5-methyl-4-(2-{2-[1-(2,2,2-trifluoroethyl)-3-azetidinyl]ethynyl}-4-pyrimidinyl)-1,4-diazepan-1-y1]-6-amino-3-pyridazinyl}phenol]?
A: DC50 [1]: < 50 nM; SMARCA2 % Degradation @ 1 μM ([1]; @ 1 μM): +++ (+++=>70%); DC50 [2]: 50 to 500 nM; inhibition at 1 µM ([2]; @ 1 μM): 30 to 70%

Q: CN(C)CC#Cc1nccc(N2CC3CC(Oc4cc(-c5ccccc5O)nnc4N)CC3C2)n1 (centres unmarked) [Compound P-222, o-[6-amino-5-(3-{2-[3-(dimethylamino)-1-propynyl]-4-pyrimidinyl}-3-azabicyclo[3.3.0]oct-7-yloxy)-3-pyridazinyl]phenol] was tested. Which DC50 [1] did it give?
A: 50 to 500 nM

Q: And the “SMARCA2 % Degradation @ 1 μM” value ([1]; @ 1 μM)?
A: +++ (+++=>70%)

Q: What about the DC50 [2] of the same molecule?
A: 50 to 500 nM

Q: What about the inhibition at 1 µM ([2]; @ 1 μM) of the same molecule?
A: > 70%

Q: CN1CCC(C#Cc2nccc(N3CCCN(c4cc(-c5ccccc5O)nnc4N)CC3)n2)CC1 [Compound P-256, o-[6-amino-5-(4-{2-[2-(1-methyl-4-piperidyl)ethynyl]-4-pyrimidinyl}-1,4-diazepan-1-yl)-3-pyridazinyl]phenol] was tested. Which DC50 [1] did it give?
A: 50 to 500 nM

Q: What about the “SMARCA2 % Degradation @ 1 μM” value ([1]; @ 1 μM) of the same molecule?
A: ++ (++=30-70%)

Q: What about the DC50 [2] of the same molecule?
A: 500 to 5000 nM

Q: And the inhibition at 1 µM ([2]; @ 1 μM)?
A: 30 to 70%

Q: Which results are given for Nc1nnc(-c2ccccc2O)cc1N1C2CCC1CN(c1ccnc(C#CCN3CC4CC3C4)n1)C2 [Compound P-182, o-{6-amino-5-[3-(2-{3-(2-azabicyclo[2.1.1]hex-2-yl)-1-propynyl}-4-pyrimidinyl)-3,8-diazabicyclo[3.2.1]oct-8-yl]-3-pyridazinyl}phenol]?
A: DC50 [1]: 50 to 500 nM; SMARCA2 % Degradation @ 1 μM ([1]; @ 1 μM): ++ (++=30-70%); DC50 [2]: 50 to 500 nM; inhibition at 1 µM ([2]; @ 1 μM): 30 to 70%

Q: Nc1nnc(-c2cc(F)ccc2O)cc1N1CCCN(c2ccnc(C#CCNC(=O)c3cc4ncccn4n3)n2)CC1 [Compound P-367, N-[3-(4-{4-[3-amino-6-(5-fluoro-2-hydroxyphenyl)-4-pyridazinyl]-1,4-diazepan-1-y1}-2-pyrimidinyl)-2-propynyl]-1,4,7a-triaza-2-indenecarboxamide] was tested. Which DC50 [1] did it give?
A: 500 to 5000 nM

Q: What about the “SMARCA2 % Degradation @ 1 μM” value ([1]; @ 1 μM) of the same molecule?
A: ++ (++=30-70%)

Q: And the DC50 [2]?
A: 500 to 5000 nM

Q: What about the inhibition at 1 µM ([2]; @ 1 μM) of the same molecule?
A: < 30%

Q: Cc1nc(C)n(CC#Cc2nccc(N3CCN(c4cc(-c5ccccc5O)nnc4N)CC[C@H]3C)n2)c1C [Compound P-185, o-{5-[(R)-5-methyl-4-{2-[3-(2,4,5-trimethyl-1-imidazolyl)-1-propynyl]-4-pyrimidinyl}-1,4-diazepan-1-y1]-6-amino-3-pyridaziny1} phenol] was tested. Which DC50 [1] did it give?
A: 50 to 500 nM

Q: And the “SMARCA2 % Degradation @ 1 μM” value ([1]; @ 1 μM)?
A: +++ (+++=>70%)

Q: What about the DC50 [2] of the same molecule?
A: 50 to 500 nM

Q: What about the inhibition at 1 µM ([2]; @ 1 μM) of the same molecule?
A: > 70%

Q: How did the DC50 [1] turn out when Nc1nnc(-c2ccccc2O)cc1N1C2CCC1CN(c1ccnc(C#CCNC(=O)c3cc4ncccn4n3)n1)C2 [Compound P-78, N-(3-(4-(8-(3-amino-6-(2-hydroxyphenyl)pyridazin-4-yl)-3,8-diazabicyclo[3.2.1]octan-3-yl)pyrimidin-2-yl)prop-y2-yn-1-l)pyrazolo[1,5-a]pyrimidine-2-carboxamide] was run?
A: 50 to 500 nM

Q: And the “SMARCA2 % Degradation @ 1 μM” value ([1]; @ 1 μM)?
A: +++ (+++=>70%)

Q: And the DC50 [2]?
A: 50 to 500 nM

Q: What about the inhibition at 1 µM ([2]; @ 1 μM) of the same molecule?
A: 30 to 70%

Q: How did the DC50 [1] turn out when C[C@@H]1CCN(c2cc(-c3ccccc3O)nnc2N)CCN1c1ccnc(C#CC2CN(CC(F)F)C2)n1 [Compound P-174, o-{5-[(R)-4-(2-{2-[1-(2,2-difluoroethyl)-3-azetidinyl]ethynyl}-4-pyrimidinyl)-5-methyl-1,4-diazepan-1-y1]-6-amino-3-pyridazinyl}phenol] was run?
A: 50 to 500 nM

Q: And the “SMARCA2 % Degradation @ 1 μM” value ([1]; @ 1 μM)?
A: +++ (+++=>70%)

Q: What about the DC50 [2] of the same molecule?
A: 50 to 500 nM

Q: What about the inhibition at 1 µM ([2]; @ 1 μM) of the same molecule?
A: 30 to 70%

Q: How did the DC50 [1] turn out when Nc1nnc(-c2ccccc2O)cc1N1CCC2(CCCN(c3ccnc(C#CCNC(=O)c4cc5n(n4)CCC5)n3)C2)CC1 [Compound P-129, N-(3-(4-(9-(3-amino-6-(2-hydroxyphenyl)pyridazin-4-yl)-2,9-diazaspiro[5.5]undecan-2-yl)pyrimidin-2-yl)prop-2-yn-1-yl)-5,6-dihydro-4H-pyrrolo[1,2-b]pyrazole-2-carboxamide] was run?
A: 50 to 500 nM

Q: What about the “SMARCA2 % Degradation @ 1 μM” value ([1]; @ 1 μM) of the same molecule?
A: ++ (++=30-70%)

Q: What about the DC50 [2] of the same molecule?
A: 50 to 500 nM

Q: What about the inhibition at 1 µM ([2]; @ 1 μM) of the same molecule?
A: 30 to 70%

From patent US20260265238A1, “COMPOUNDS AND PHARMACEUTICAL COMPOSITIONS THAT DEGRADE SWI/SNF-RELATED MATRIX-ASSOCIATED ACTIN-DEPENDENT REGULATOR OF CHROMATIN SUBFAMILY A” (Plexium, Inc., priority 2023, published 2026)
